Assay results reported in US12661309B2, “Preparation and efficacy of tooth whitening tablet including SHMP” (The Hershey Company, priority 2018, dated 2026).

Assays:
[1] = Stain removal (ΔE whitening index) on pre-stained bovine enamel slabs
Protocol: Commercially available bovine enamel slabs were purchased from Theremetrics Inc. The slabs were prepared by immersing the enamel specimens in a staining broth containing coffee, tea and gastric mucin and air-drying the specimens. The gastric mucin (glycoprotein) was added to the straining broth to afford pellicle formation on the enamel surface. This mimics the dental pellicle formed by the glycoproteins present in the saliva. The broth immersion and air-drying procedure was repeated several times up to four days to afford a heavily-stained film containing the pellicle, as shown in FIG. 2.
Six treatments were performed with 3 bovine enamel slabs per treatment (2 medium stained and 1 heavy stained). The following treatment regimen was followed. The pre-stained enamel slabs were suspended in aqueous medium using a thin rod in a plastic container. […]
After the treatment, the solution was emptied and the slab was rinsed with DI water and wiped with paper towel. […] The whiteness index was measured using Xrite spectrophotometer (L*a b) at the end of 28 and 56 cycles or treatments. […]
The term ΔE, known as the whitening index value, represents the change in color difference from baseline measurements. The L* a* b* values were measured by Xrite spectrophotometer which was calibrated every time prior use. […] Using the L* a* b* values, ΔE was calculated according to the formula as shown below. […]
The three phosphate buffer solutions (pH 5.8, 7.0, 8.0) were prepared using 0.2M NaH2PO4 and 0.2M Na2HPO4. […] The L* a* b* measurements were measured by Xrite spectrophotometer and digital images were taken at baseline, 28 cycles and at end of 56 cycles.
Artificial saliva was used as the medium for this example. […] The L* a* b* measurements were measured by Xrite spectrophotometer and digital images were taken at baseline, after 28 cycles and after 56 cycles.
Artificial saliva was used as the medium for Example 4. […] The L* a* b* measurements were measured by Xrite spectrophotometer and digital images were taken at baseline, after 28 treatment cycles and after 56 treatment cycles.

[2] = hydrolyze to form orthophosphates; cited from earlier work

Structure (SMILES)	stain removal, ingredient only vs tableted forms (Codes H, L & D) ([1]; Example 1, specifically heavy stains)	relationship between SHMP concentration and stain removal efficacy ΔE values ([1]; Example 3, 0-8% SHMP tablets, medium stained slabs, artificial saliva)	reduction of whitening efficacy ([1]; Example 3, dropping SHMP level in tablet from 8% to 5%, artificial saliva) [%]	stability in acidic environments [2]
O=P1([O-])OP(=O)([O-])OP(=O)([O-])OP(=O)([O-])OP(=O)([O-])OP(=O)([O-])O1.[Na+].[Na+].[Na+].[Na+].[Na+].[Na+] [Code B, sodium hexametaphosphate]	performed better than tableted forms			
O=P1([O-])OP(=O)([O-])OP(=O)([O-])OP(=O)([O-])OP(=O)([O-])OP(=O)([O-])O1.[Na+].[Na+].[Na+].[Na+].[Na+].[Na+] [SHMP, sodium hexametaphosphate]		linear relationship	32	not stable
